# Test results as given in BindingDB's records for PubMed 1994002 (National Institute of Neurological Disorders and Stroke, 1991).
# Several values for one entry are separate records, joined by “and”; a condition that tells them apart may be missing. Identical values can stand only once.
# How the values were obtained:
# [1] = molecular target: T1, Muscarinic acetylcholine receptor M5 (Homo sapiens, UniProt P08912)
# T1 sequence (P08912 whole entry): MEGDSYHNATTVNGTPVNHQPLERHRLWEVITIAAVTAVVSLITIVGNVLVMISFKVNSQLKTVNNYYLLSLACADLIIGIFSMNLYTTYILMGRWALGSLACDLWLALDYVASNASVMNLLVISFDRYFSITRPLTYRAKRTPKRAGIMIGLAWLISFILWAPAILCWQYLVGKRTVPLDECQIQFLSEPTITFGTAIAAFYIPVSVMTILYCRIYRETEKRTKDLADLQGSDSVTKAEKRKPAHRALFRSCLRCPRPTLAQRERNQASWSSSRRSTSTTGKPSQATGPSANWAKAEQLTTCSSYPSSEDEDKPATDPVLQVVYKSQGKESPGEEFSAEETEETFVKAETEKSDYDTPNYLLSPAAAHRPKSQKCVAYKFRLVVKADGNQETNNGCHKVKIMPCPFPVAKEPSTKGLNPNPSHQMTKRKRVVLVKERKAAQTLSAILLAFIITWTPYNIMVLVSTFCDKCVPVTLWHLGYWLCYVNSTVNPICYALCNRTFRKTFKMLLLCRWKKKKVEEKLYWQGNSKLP
# [2] = molecular target: T2, Muscarinic acetylcholine receptor M2 (Homo sapiens, UniProt P08172)
# T2 sequence (P08172 whole entry): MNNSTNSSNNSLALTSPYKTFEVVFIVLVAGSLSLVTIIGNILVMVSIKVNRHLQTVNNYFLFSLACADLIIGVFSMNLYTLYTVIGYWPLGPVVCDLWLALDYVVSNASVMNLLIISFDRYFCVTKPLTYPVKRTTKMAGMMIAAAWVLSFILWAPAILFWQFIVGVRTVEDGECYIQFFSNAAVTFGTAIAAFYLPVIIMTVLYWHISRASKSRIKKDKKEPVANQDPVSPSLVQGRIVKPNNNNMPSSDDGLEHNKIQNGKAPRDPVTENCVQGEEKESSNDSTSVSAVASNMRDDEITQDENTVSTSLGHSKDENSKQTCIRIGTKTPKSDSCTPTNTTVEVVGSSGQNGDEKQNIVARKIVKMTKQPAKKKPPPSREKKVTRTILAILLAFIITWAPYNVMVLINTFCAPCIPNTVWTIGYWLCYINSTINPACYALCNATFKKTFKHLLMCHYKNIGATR
# [3] = molecular target: T3, Muscarinic acetylcholine receptor M4 (Homo sapiens, UniProt P08173)
# T3 sequence (P08173 whole entry): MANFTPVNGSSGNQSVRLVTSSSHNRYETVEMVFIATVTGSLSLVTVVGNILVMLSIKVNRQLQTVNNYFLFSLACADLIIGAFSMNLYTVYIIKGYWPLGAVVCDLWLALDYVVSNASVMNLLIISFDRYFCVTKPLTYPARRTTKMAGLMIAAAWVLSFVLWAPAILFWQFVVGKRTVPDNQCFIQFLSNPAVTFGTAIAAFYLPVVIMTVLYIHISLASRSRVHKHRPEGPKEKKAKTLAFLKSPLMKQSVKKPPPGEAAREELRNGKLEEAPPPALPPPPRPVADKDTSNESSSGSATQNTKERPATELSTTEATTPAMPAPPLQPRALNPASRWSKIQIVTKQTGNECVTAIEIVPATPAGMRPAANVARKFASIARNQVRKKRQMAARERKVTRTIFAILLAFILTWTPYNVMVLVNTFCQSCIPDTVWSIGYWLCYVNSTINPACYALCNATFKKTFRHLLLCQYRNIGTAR
Ki [3],Compound,Ki [1] [nM],Ki [2]
,C[N+]1(C)CCC(OC(=O)C(c2ccccc2)c2ccccc2)CC1,1.05,
162 nM,"CCN(CC)CC1CCCCN1CC(=O)N1c2ccccc2NC(=O)c2ccccc21 (single isomer, unassigned; (+)) [CAS_121029-35-4]",3020,55 nM
,C[C@H]1OC(=O)C2C[C@H]3CCCC[C@@H]3[C@@H](/C=C/[C@@H]3CCC[C@H](C)N3C)C21 (stereo partly drawn) [HIMBACINE],490,10 nM
31.6 nM,COc1ccccc1CNCCCCCCNCCCCCCCCNCCCCCCNCc1ccccc1OC [METHOCTRAMINE],135,
6.46 nM,CCN(CC)CCCCC1CCN(CC(=O)N2c3ccccc3C(=O)Nc3cccnc32)CC1 [NSC_129989],832,
3.02 nM and 19.5 nM,OC(C#CCN1CCCCC1)(c1ccccc1)C1CCCCC1 (stereo not drawn) [NSC_2054314],,20.9 nM and 72.4 nM

Compound,Ki [3],Ki [1] [nM],Ki [2]
CCCN(CCC)CC1CCCCN1CCNC(=O)N1c2ccccc2C(=O)Nc2cccnc21 (stereo not drawn),10 nM,537,6.03 nM
O[Si](CCCN1CCCCC1)(c1ccc(F)cc1)C1CCCCC1 (stereo not drawn) [CAS_5311091],31.6 nM,93.3,132 nM
